According to patent publication US8354436B2 (4SC Discovery GmbH, priority 2011, dated 2013):

Assays:
IFN-γ = IFN-γ production by PHA-stimulated human PBMC (OptEIA human IFN-g ELISA); assay type: cell-based; conditions: PHA-stimulated human PBMC, 48 hours; column C; read-out: IC50 (IFNγ)
Description: Analysis of Proliferation of and Cytokine Production by Human PBMC Stimulated with PHA
Peripheral blood mononuclear cells (PBMC) from healthy human donors were purified using Accuspin™ System-Histopaque-1077 (Sigma) according to the protocol recommended by the manufacturer. Purified PBMC were then washed twice with phosphate-buffered saline (PBS) and resuspended in RPMI1640 culture medium supplemented with 10% dialyzed heat inactivated fetal calf serum, 1.5 mM L-glutamine, 100 U penicillin/ml, and […] (all from PAN Biotech, Aidenbach, Germany). For stimulation, PBMC were seeded at 1×10^5 cells/well, activated with 2 μg/ml phytohaemagglutinin (PHA, Sigma) and incubated with the test compounds for 48 hours. IL-17A, IL-17F and INF-γ were then determined in the culture supernatant using a Luminex BioPlex system, following the manufacturer's instructions (BioRad, Munich, Germany). For screening, compounds were used at 10, 1, 0.1 and 0.01 μM. To determine the IC50, compounds were titrated semilogarithmically.
Cytokines were determined in the aforementioned culture supernatant using the following methods: IL-17AA/AF was measured using the Luminex BioPlex system (BioRad, Munich, Germany); IL-17AA using the human homodimer IL-17A ELISA Ready Set Go Kit from eBioscience (Frankfurt, Germany); IL-17FF using the human IL-17F ELI-Pair from Hölzel DiagnosticaGmBH (Köln, Germany); and IFN-γ using the OptEIA human IFN-g ELISA from BD Bioscience (Heidelberg, Germany), all following the manufacturer's instructions.

[1] = tested on: PBMC from healthy human donors; assay: T cell proliferation assay (PHA-stimulated human PBMC, BrdU ELISA); assay type: cell-based; conditions: PHA-stimulated human PBMC, 48 hours, column D, read-out: IC50 (Tcell proliferation)
Description: Cell proliferation was analysed using the BrdU based cell proliferation ELISA from Roche (Mannheim, Germany) according to the manufacturer's instructions. T Cell Proliferation Assay Peripheral blood mononuclear cells (PBMC) from healthy human donors were isolated by centrifugation over Ficoll-Hypaque (Sigma-Aldrich, Germany) according to manufacturer's instructions. Purified PBMC were washed twice with PBS and resuspended in RPMI1640 culture medium supplemented with 10% dialyzed heat inactivated fetal calf serum, 1.5 mM L-glutamine, 100 U penicillin/ml, and […] (all from PAN Biotech, Aidenbach, Germany). For stimulation, PBMC were seeded at 1×10^5 cells/well, activated with 2 μg/ml phytohaemagglutinin (PHA, Sigma) and incubated with the test compound. After 48 hours proliferation was measured using the BrdU based cell proliferation ELISA from Roche (Mannheim, Germany) according to the manual.

IC50 (IFN-γ) | Compound | IC50 [1]
0.01 to 0.1 µM | O=C(c1c(-c2c(F)cccc2Cl)noc1-c1cnn(-c2ccccc2F)c1C(F)(F)F)N1CCCCC1 [Example I-21, (3-(2-chloro-6-fluorophenyl)-5-(1-(2-fluorophenyl)-5-(trifluoromethyl)-1H-pyrazol-4-yl)isoxazol-4-yl)(piperidin-1-yl)methanone] | 0.01 to 0.1 µM
1 to 10 µM | O=C(c1c(-c2c(F)cccc2Cl)noc1-c1cnn(-c2ccccc2F)c1C(F)(F)F)N1CCN(Cc2cccc(Cl)c2)CC1 [Example I-24, (3-(2-chloro-6-fluorophenyl)-5-(1-(2-fluorophenyl)-5-(trifluoromethyl)-1H-pyrazol-4-yl)isoxazol-4-yl)(4-(3-chlorobenzyl)piperazin-1-yl)methanone] | 0.1 to 1 µM
1 to 10 µM | COC(=O)c1c(-c2ccccc2)noc1-c1cnn(-c2cccc(F)c2)c1C(F)(F)F [Example I-51, methyl 5-(1-(3-fluorophenyl)-5-(trifluoromethyl)-1H-pyrazol-4-yl)-3-phenylisoxazole-4-carboxylate] | 1 to 10 µM
 | COC(=O)c1c(-c2c(F)cccc2Cl)noc1-c1cnn(-c2nc(-c3ccc(F)cc3)cs2)c1C(F)(F)F [Example I-54, methyl 3-(2-chloro-6-fluorophenyl)-5-(1-(4-(4-fluorophenyl)thiazol-2-yl)-5-(trifluoromethyl)-1H-pyrazol-4-yl)isoxazole-4-carboxylate] | 1 to 10 µM
 | COC(=O)c1c(-c2c(F)cccc2Cl)noc1-c1cnn(-c2cccc(F)c2)c1C(F)(F)C(F)F [Example I-64, methyl 3-(2-chloro-6-fluorophenyl)-5-(1-(3-fluorophenyl)-5-(1,1,2,2-tetrafluoroethyl)-1H-pyrazol-4-yl)isoxazole-4-carboxylate] | 1 to 10 µM
 | COC(=O)c1c(-c2c(F)cccc2Cl)noc1-c1cnn(-c2nccc(C(F)(F)F)n2)c1C(F)(F)F [Example I-67, methyl 3-(2-chloro-6-fluorophenyl)-5-(5-(trifluoromethyl)-1-(4-(trifluoromethyl)pyrimidin-2-yl)-1H-pyrazol-4-yl)isoxazole-4-carboxylate] | 0.1 to 1 µM
0.1 to 1 µM | CNC(=S)c1c(-c2c(F)cccc2Cl)noc1-c1cnn(-c2cccc(Cl)c2)c1C(F)(F)F [Example I-72, 3-(2-chloro-6-fluorophenyl)-5-(1-(3-chlorophenyl)-5-(trifluoromethyl)-1H-pyrazol-4-yl)-N-methylisoxazole-4-carbothioamide] | 0.1 to 1 µM
 | COC(=O)c1c(-c2ccc(Cl)cc2)noc1-c1cnn(-c2cccc(F)c2)c1C(F)(F)F [Example I-73, methyl 3-(4-chlorophenyl)-5-(1-(3-fluorophenyl)-5-(trifluoromethyl)-1H-pyrazol-4-yl)isoxazole-4-carboxylate] | 1 to 10 µM
 | COC(=O)c1c(-c2ccccc2)noc1-c1cnn(-c2ccc(OC(F)(F)F)cc2)c1C(F)(F)F [Example I-74, methyl 3-phenyl-5-(1-(4-(trifluoromethoxy)phenyl)-5-(trifluoromethyl)-1H-pyrazol-4-yl)isoxazole-4-carboxylate] | 1 to 10 µM
 | COC(=O)c1c(-c2c(F)cccc2Cl)noc1-c1cnn(-c2cccc(C(F)(F)F)c2)c1C(F)(F)F [Example I-82, methyl 3-(2-chloro-6-fluorophenyl)-5-(5-(trifluoromethyl)-1-(3-(trifluoromethyl)phenyl)-1H-pyrazol-4-yl)isoxazole-4-carboxylate] | 1 to 10 µM
 | COC(=O)c1c(-c2c(F)cccc2Cl)noc1-c1cnn(-c2ncc(C(F)(F)F)cc2Cl)c1C(F)(F)F [Example I-87] | 1 to 10 µM
 | COC(=O)c1c(-c2c(F)cccc2Cl)noc1-c1cnn(-c2ccccc2I)c1C(F)(F)F [Example I-88, methyl 3-(2-chloro-6-fluorophenyl)-5-(1-(2-iodophenyl)-5-(trifluoromethyl)-1H-pyrazol-4-yl)isoxazole-4-carboxylate] | 1 to 10 µM
 | O=C(O)c1c(-c2ccccc2F)noc1-c1cnn(-c2cccc(F)c2)c1C(F)(F)F [Example I-91, 3-(2-fluorophenyl)-5-(1-(3-fluorophenyl)-5-(trifluoromethyl)-1H-pyrazol-4-yl)isoxazole-4-carboxylic acid] | 1 to 10 µM
 | COC(=O)c1c(-c2ccc(Cl)c(Cl)c2)noc1-c1cnn(-c2cccc(F)c2)c1C(F)(F)F [Example I-97, methyl 3-(3,4-dichlorophenyl)-5-(1-(3-fluorophenyl)-5-(trifluoromethyl)-1H-pyrazol-4-yl)isoxazole-4-carboxylate] | 1 to 10 µM
 | COC(=O)c1c(-c2ccc(OC)cc2)noc1-c1cnn(-c2cccc(F)c2)c1C(F)(F)F [Example I-107, methyl 5-(1-(3-fluorophenyl)-5-(trifluoromethyl)-1H-pyrazol-4-yl)-3-(4-methoxyphenyl)isoxazole-4-carboxylate] | 1 to 10 µM
 | COc1ccc(-c2noc(-c3cnn(-c4cccc(F)c4)c3C(F)(F)F)c2C(=O)O)cc1 [Example I-108, 5-(1-(3-fluorophenyl)-5-(trifluoromethyl)-1H-pyrazol-4-yl)-3-(4-methoxyphenyl)isoxazole-4-carboxylic acid] | 1 to 10 µM
 | CCOc1cc(-n2ncc(-c3onc(-c4c(F)cccc4Cl)c3C(=O)OC)c2C(F)(F)F)ncn1 [Example I-116, methyl 3-(2-chloro-6-fluorophenyl)-5-(1-(6-ethoxypyrimidin-4-yl)-5-(trifluoromethyl)-1H-pyrazol-4-yl)isoxazole-4-carboxylate] | 1 to 10 µM
1 to 10 µM | NC(=O)c1c(-c2c(F)cccc2Cl)noc1-c1cnn(-c2cccc(F)c2)c1C(F)(F)F [Example I-124, 3-(2-chloro-6-fluorophenyl)-5-(1-(3-fluorophenyl)-5-(trifluoromethyl)-1H-pyrazol-4-yl)isoxazole-4-carboxamide] | 1 to 10 µM
 | COC(=O)c1c(-c2c(F)cccc2Cl)noc1-c1cnn(-c2onc(-c3ccc(Cl)cc3)c2C(=O)OC)c1C(F)(F)F [Example I-131, methyl 3-(2-chloro-6-fluorophenyl)-5-{[1-(4-methoxycarbonyl-3-(4-chlorophenyl)isoxazol-5-yl)-5-trifluoromethyl-1H-pyrazol-4-yl]}-isoxazole-4-carboxylate] | 1 to 10 µM
 | NNC(=O)c1c(-c2cccc(F)c2)noc1-c1cnn(-c2cccc(F)c2)c1C(F)(F)F [Example I-134, 3-(3-fluorophenyl)-5-(1-(3-fluorophenyl)-5-(trifluoromethyl)-1H-pyrazol-4-yl)isoxazole-4-carbohydrazide] | 1 to 10 µM
0.1 to 1 µM | Fc1ccccc1-n1ncc(-c2onc(-c3c(F)cccc3Cl)c2Br)c1C(F)(F)F [IB-26, 4-bromo-3-(2-chloro-6-fluorophenyl)-5-(1-(2-fluorophenyl)-5-(trifluoromethyl)-1H-pyrazol-4-yl)isoxazole] | 1 to 10 µM
1 to 10 µM | CC(C)=NNC(=O)c1c(-c2c(F)cccc2Cl)noc1-c1cnn(-c2cccc(F)c2)c1 [IB-29, 3-(2-chloro-6-fluorophenyl)-5-(1-(3-fluorophenyl)-1H-pyrazol-4-yl)-N′-(propan-2-ylidene)isoxazole-4-carbohydrazide] | 1 to 10 µM
0.1 to 1 µM | CN1CCN(C(=O)c2c(-c3c(F)cccc3Cl)noc2-c2cnn(-c3cccc(Cl)c3)c2C(F)(F)F)CC1 [IB-34, (3-(2-chloro-6-fluorophenyl)-5-(1-(3-chlorophenyl)-5-(trifluoromethyl)-1H-pyrazol-4-yl)-isoxazol-4-yl)(4-methylpiperazin-1-yl)methanone] | 0.1 to 1 µM
1 to 10 µM | CC(=O)Nc1c(-c2c(F)cccc2Cl)noc1-c1cnn(-c2cccc(Cl)c2)c1C(F)(F)F [IB-39, N-(3-(2-chloro-6-fluorophenyl)-5-(1-(3-chlorophenyl)-5-(trifluoromethyl)-1H-pyrazol-4-yl)-isoxazol-4-yl)acetamide] | 1 to 10 µM
1 to 10 µM | CCOC(=O)c1c(-c2c(F)cccc2Cl)noc1-c1cnn(-c2ccc(C#N)cc2)c1C(F)(F)F [IB-40, ethyl 3-(2-chloro-6-fluorophenyl)-5-(1-(4-cyanophenyl)-5-(trifluoromethyl)-1H-pyrazol-4-yl)-isoxazole-4-carboxylate] | 1 to 10 µM
 | O=C(O)c1c(-c2c(F)cccc2Cl)noc1-c1cnn(Cc2ccccc2F)c1C(F)(F)F [IB-86, 3-(2-chloro-6-fluorophenyl)-5-(1-(2-fluorobenzyl)-5-(trifluoromethyl)-1H-pyrazol-4-yl)isoxazole-4-carboxylic acid] | 1 to 10 µM
